In patent US20100008965A1, “BIOCOMPATIBLE MEDICAL PRODUCTS HAVING ENHANCED ANTI-THROMBOGENIC PROPERTIES” (priority 2008, published 2010):

Legend:
HCAEC = test: alpha-4 integrin function blocking cell binding assay, HCAEC; assay type: cell-based, human; conditions: 0.5 μg antibody per 5×10^4 cells, 8 h; CS-1 p<0.05
Experimental: To verify that HCAEC or HUVEC adhesion to immobilized CS-1 polypeptides is specifically mediated via alpha-4-containing integrin heterodimers, alpha-4 integrin function blocking cell binding assays were performed. RGDS, EILEVPST, and CS-1 polypeptides were immobilized in Immobilizer™ Amino 96-well microplates. Microplate wells were prepared as described above. Trypsinized HCAEC or HUVEC suspensions were manually counted, aliquoted into two groups, and incubated for one hour on ice with one of the following antibodies at a concentration of 0.5 μg antibody per 5×10^4 cells: (a) mouse monoclonal IgG1 anti-human alpha-4-integrin (CD49d, clone P1H4) (Chemicon), or (b) mouse monoclonal IgG1 anti-human isotype-matched control (R&D Systems). Next, 5×10^4 cells suspended in their respective basal medium were added to wells containing immobilized peptide polypeptides and incubated for eight hours at 37° C. and a 5% CO2 atmosphere. Adherent cells were analyzed via crystal violet staining as described previously.
To differentiate whether HCAEC and HUVEC adhere to CS-1 peptides via an alpha-4 integrin-specific interaction, HCAEC and HUVEC adhesion assays to CS-1, RGDS, and EILEVPST peptides were performed following one hour endothelial cell incubations with either an alpha-4 integrin function blocking antibody or an IgG isotype-matched control antibody. The EILEVPST peptide served as the negative control cell adhesion peptide. The RGDS peptide served as an additional control. Endothelial cell adhesion to RGDS is primarily mediated by alpha-5-beta-1 integrins. Therefore, alpha-4 integrin function blocking should not have a significant effect on adhesion to RGDS. Thus, specificity of HCAEC and HUVEC binding to CS-1 via alpha-4 integrins could be tested.

human platelets [1] = test: DiOC6-labeled platelet adhesion imaging under shear flow; assay type: cell-based; conditions: 16.5 dyne/cm^2, one hour, platelets activated prior to flow
Experimental: To visualize shear stress-mediated platelet adhesion to the immobilized ECM proteins, non-radiolabeled non-activated or thrombin-activated human platelets were prepared as described above, but were first incubated for ten minutes at room temperature with a 10 μM DiOC6 (dihexaoxacarbocyanine iodide) (Sigma) solution prior to being subjected to flow for one hour at a shear stress τ=16.5 dyne/cm^2. Post-flow, all slides were rinsed twice with PBS and fixed with 4% (w/v) paraformaldehyde. Platelet adhesion was visualized on a Nikon Diaphot 200 inverted epifluorescence microscope (Nikon) at 488 nm using a 40× objective. Images were captured using an Olympus DP70 digital camera (Olympus America, Inc.) and analyzed using the Adobe® Photoshop® software package version 6.0 (Adobe Systems Incorporated, San Jose, Calif.).

human platelets [2] = test: 51Cr-labeled platelet adhesion to immobilized ECM proteins under shear flow; assay type: cell-based; conditions: 16.5 dyne/cm^2, one hour; non-activated and thrombin-activated; versus CS-1 and glass control
Experimental: Characterization of human platelet adhesion to immobilized extracellular matrix proteins was performed by subjecting non-activated or thrombin-activated human platelets to a shear stress τ=16.5 dyne/cm^2 for one hour using a peristaltic pump-driven parallel plate fluid flow system. Washed human platelets were isolated as described above, resuspended in platelet washing buffer (PWB), and adjusted to a final concentration of approximately 0.5-1.0×10^9 platelets/ml. The platelet suspensions were incubated for thirty minutes at room temperature with 25 μCi/ml Na2^51CrO4 (GE Healthcare, Piscataway, N.J.). ^51Cr-labeled platelets were centrifuged at 2000×g for three minutes at room temperature and resuspended in 20 ml fresh frozen plasma previously thawed and warmed to 37° C. The ^51Cr-platelet/plasma solution was distributed equally (5 ml) into each of four reservoirs containing an additional 50 ml of 37° C. human plasma. For thrombin-activated platelets, 1 U thrombin (Sigma) per 3 ml platelet suspension was added immediately prior to aliquoting the ^51Cr-platelet/plasma solution into the flow loop reservoirs.
75×38×1 mm glass microscope slides were coated with ECM proteins as described above. Slides were incubated for one hour at room temperature with a 0.25% (w/v) sterile-filtered BSA solution. […]

HUVEC = HUVEC spreading on coated glass slides, static; assay type: cell-based, human; conditions: 5 μg/cm^2 coating, two hours, p<0.01
Experimental: 22×25×1 mm glass slides (Electron Microscopy Sciences, Hatfield, Pa.) were washed sequentially in 100% acetone, ethanol and HCl (2:1), and deionized and Milli-Q H2O, followed by autoclave sterilization. Slides were coated with one of the following PBS-solubilized extracellular matrix proteins at 5 μg/cm^2: (a) human type I collagen (Sigma), (b) human plasma fibronectin (Chemicon), or (c) CS-1 peptide (American Peptide Company). All coated slides were dried overnight at room temperature, rinsed with PBS, and blocked with a 0.01% (w/v) heat-inactivated BSA-solution at room temperature for one hour. HCAEC or HUVEC were seeded onto the slides in basal medium at 1×10^4 cells/cm^2 and permitted to attach and spread for two hours at 37° C. Cells were fixed with 4% (w/v) paraformaldehyde and co-stained for fluorescence microscopic analysis using Texas Red®-X phalloidin (Molecular Probes, Eugene, Oreg.) and DAPI (EMB Chemicals, Inc., San Diego, Calif.). Fluorescence micrographs were captured through a 10× objective on a Nikon Diaphot 200 inverted epifluorescence microscope (Nikon, Inc., Melville, N.Y.) using an Olympus DP70 digital camera (Olympus America, Inc., Melville, N.Y.). Image Tool software package version 3.0 (University of Texas Health Science Center, San Antonio, Tex.) was used to quantify endothelial cell surface area.

## CS-1: full-length 25 amino acid polypeptide, first 25 amino acid sequence of the fibronectin type IIICS domain (DELPQLVTLPHPNLHGPEILDVPST; Homo sapien)
HCAEC
  difference in HCAEC adhesion between IgG isotype control and alpha-4 integrin blocking antibody treated cells: A statistical difference was achieved
Human platelets [1]
  thrombin-activated platelet adhesion and thrombus formation (DiOC6 images): higher binding to the CS-1 substratum relative to their non-activated counterparts
Human platelets [2]
  flowed platelet binding (51Cr), both states of activation: lack of significant upregulation in platelet binding
HUVEC
  HUVEC spread area relative to the non-ECM-coated control substrate: statistically significant increase
